Measured values published in paper PMC3356581 (Bioorganic & medicinal chemistry, 2012).

Experiments:
[1] = target: 5-HT2A receptor (Homo sapiens, UniProt P28223); test: NIMH-PDSP radioligand binding, 5-HT2A
[2] = target: T1, D4 receptor (Homo sapiens, UniProt P21917); test: NIMH-PDSP radioligand binding, D4
T1 sequence (P21917 1-419): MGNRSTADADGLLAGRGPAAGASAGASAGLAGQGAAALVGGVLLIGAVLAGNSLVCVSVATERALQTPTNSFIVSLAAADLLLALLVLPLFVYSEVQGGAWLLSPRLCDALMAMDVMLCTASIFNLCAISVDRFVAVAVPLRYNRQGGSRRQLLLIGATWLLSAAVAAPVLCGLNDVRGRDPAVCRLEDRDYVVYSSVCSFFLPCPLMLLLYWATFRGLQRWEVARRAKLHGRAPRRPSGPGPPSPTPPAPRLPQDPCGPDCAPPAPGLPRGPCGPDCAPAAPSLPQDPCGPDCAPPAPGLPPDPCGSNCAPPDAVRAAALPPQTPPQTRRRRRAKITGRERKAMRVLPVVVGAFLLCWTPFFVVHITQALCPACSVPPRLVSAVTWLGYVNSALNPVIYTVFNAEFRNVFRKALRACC

[3] = target: T2, 5-HT1A receptor (Homo sapiens, UniProt P08908); test: NIMH-PDSP radioligand binding, 5-HT1A
T2 sequence (P08908 1-422): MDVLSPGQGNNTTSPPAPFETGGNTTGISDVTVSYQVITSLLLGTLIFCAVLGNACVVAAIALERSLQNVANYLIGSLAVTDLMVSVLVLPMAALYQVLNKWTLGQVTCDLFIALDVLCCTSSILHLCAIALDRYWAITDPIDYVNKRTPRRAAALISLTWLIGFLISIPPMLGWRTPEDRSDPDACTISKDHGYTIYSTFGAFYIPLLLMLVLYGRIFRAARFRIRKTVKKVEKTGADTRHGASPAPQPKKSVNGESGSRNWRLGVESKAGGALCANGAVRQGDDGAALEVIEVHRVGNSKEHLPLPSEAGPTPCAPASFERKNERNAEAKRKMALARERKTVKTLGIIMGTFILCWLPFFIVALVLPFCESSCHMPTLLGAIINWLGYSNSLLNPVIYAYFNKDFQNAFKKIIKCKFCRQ

[4] = target: T3, 5-HT2C receptor (Homo sapiens, UniProt P28335); test: NIMH-PDSP radioligand binding, 5-HT2C
T3 sequence (P28335 33-458): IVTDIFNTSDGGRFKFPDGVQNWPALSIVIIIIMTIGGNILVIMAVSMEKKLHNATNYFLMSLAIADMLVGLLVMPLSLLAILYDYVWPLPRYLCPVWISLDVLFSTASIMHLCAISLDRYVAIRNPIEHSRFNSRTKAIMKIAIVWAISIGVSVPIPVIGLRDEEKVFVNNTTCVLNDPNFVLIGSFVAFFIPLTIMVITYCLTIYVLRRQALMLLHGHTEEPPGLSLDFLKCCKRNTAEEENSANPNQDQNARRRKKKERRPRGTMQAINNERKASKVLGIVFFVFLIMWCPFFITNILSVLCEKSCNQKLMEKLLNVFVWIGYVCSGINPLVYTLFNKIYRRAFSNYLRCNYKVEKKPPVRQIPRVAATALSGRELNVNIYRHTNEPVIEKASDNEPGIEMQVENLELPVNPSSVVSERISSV

[5] = target: Histamine H1 receptor (Homo sapiens, UniProt P35367); test: NIMH-PDSP radioligand binding, H1
Chain of Histamine H1 receptor (P35367 whole entry, species assumed): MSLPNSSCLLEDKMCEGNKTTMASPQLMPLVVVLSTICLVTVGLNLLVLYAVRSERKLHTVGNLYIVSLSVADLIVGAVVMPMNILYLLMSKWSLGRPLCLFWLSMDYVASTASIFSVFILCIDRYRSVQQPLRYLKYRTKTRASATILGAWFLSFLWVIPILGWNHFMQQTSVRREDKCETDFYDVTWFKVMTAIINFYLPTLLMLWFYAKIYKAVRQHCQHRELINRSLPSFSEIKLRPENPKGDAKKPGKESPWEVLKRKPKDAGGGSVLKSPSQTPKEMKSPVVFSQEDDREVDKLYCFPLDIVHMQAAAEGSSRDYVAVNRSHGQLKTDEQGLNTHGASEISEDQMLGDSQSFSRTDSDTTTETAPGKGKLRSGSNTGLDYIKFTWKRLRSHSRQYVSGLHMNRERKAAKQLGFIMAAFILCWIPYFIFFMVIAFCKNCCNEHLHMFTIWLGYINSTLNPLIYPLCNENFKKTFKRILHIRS

[6] = target: D2 receptor (Homo sapiens, UniProt P14416); test: NIMH-PDSP radioligand binding, D2
Chain of D2 receptor (P14416 whole entry): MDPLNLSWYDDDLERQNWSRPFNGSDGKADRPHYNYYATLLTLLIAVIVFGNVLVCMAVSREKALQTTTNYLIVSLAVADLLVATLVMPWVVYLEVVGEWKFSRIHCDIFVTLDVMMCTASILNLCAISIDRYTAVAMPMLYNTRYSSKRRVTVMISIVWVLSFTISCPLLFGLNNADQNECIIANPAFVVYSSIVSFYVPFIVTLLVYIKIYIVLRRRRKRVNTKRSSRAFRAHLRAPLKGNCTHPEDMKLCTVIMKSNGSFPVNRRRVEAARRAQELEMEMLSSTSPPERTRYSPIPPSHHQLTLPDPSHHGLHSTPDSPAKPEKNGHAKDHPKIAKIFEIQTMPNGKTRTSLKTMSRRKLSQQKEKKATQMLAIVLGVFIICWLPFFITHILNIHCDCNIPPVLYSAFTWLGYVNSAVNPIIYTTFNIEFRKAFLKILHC

[7] = test system: catalepsy; details: in vivo studies, five times the ED50 dose; cited from earlier work
[8] = target: T3, 5-HT2C receptor; details: read-out: Binding data, Ki ± SEM, previously reported; cited from earlier work
[9] = target: T2, 5-HT1A receptor; details: read-out: Binding data, Ki ± SEM, previously reported; cited from earlier work
[10] = target: T1, D4 receptor; details: read-out: Binding data, Ki ± SEM, previously reported; cited from earlier work

Chain of 5-HT2A receptor (P28223 whole entry): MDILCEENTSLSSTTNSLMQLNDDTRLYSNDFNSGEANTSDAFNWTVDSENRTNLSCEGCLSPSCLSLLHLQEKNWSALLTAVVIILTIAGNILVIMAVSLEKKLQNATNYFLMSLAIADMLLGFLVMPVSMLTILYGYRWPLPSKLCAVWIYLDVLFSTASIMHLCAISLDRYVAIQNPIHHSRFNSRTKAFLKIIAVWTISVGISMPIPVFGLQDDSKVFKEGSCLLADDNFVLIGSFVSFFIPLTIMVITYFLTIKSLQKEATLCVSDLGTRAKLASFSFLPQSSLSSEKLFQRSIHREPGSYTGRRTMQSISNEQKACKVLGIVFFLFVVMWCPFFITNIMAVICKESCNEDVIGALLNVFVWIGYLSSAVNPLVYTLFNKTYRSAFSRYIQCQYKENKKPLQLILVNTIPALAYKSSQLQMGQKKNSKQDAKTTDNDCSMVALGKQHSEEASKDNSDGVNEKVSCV

Structure (SMILES) | Binding data; Ki ± SEM, 5-HT2A [1] | Binding data; Ki ± SEM, 5-HT1A [3] | Binding data; Ki ± SEM, 5-HT2C [4] | Binding data; Ki ± SEM, D2 [6] | other results
Clc1ccc(N2CCCN(Cc3nc4ccccc4s3)CC2)cc1 [Compound 15, 2-((4-(4-Chlorophenyl)-1,4-diazepan-1-yl)methyl)benzo [d]thiazole] | MP (Missed primary assay threshold of 50% inhibition) | MP (Missed primary assay threshold of 50% inhibition) | MP (Missed primary assay threshold of 50% inhibition) | – | Binding data; Ki ± SEM, D4 [2]: MP (Missed primary assay threshold of 50% inhibition); Binding data; Ki ± SEM, H1 [5]: MP (Missed primary assay threshold of 50% inhibition)
Clc1ccc(N2CCCN(CCCc3nc4ccccc4s3)CC2)cc1 [Compound 14, 2-(3-(4-(4-Chlorophenyl)-1,4-diazepan-1-yl)propyl)benzo [d]thiazole] | – | – | – | MP (Missed primary assay threshold of 50% inhibition) | –
O=C(CCCCN1C2CCC1CC(O)(c1ccc(Cl)cc1)C2)c1nc2ccccc2s1 (stereo not shown) [Compound 18, 1-(Benzo[d]thiazol-2-yl)-5-(3-(4-chlorophenyl)-3-hydroxy-8-azabicyclo[3.2.1]octan-8-yl)pentan-1-one] | MP (Missed primary assay threshold of 50% inhibition) | MP (Missed primary assay threshold of 50% inhibition) | MP (Missed primary assay threshold of 50% inhibition) | – | –
O=C(CCCN1CCCN(c2ccc(Cl)cc2)CC1)c1ccc(F)cc1 [Compound 2, 4-(4-(4-chlorophenyl)-1,4-diazepan-1-yl)-1-(4-fluorophenyl)butan-1-one] | – | – | – | – | catalepsy [7]: without the associated catalepsy even at five times the ED50 dose
O=C(CCCN1CCCN(c2ccc(Cl)cc2)CC1)c1nc2ccccc2s1 [Compound 17, 1-(Benzo[d]thiazol-2-yl)-4-(4-(4-chlorophenyl)-1,4-diazepan-1-yl)butan-1-one] | – | MP (Missed primary assay threshold of 50% inhibition) | MP (Missed primary assay threshold of 50% inhibition) | MP (Missed primary assay threshold of 50% inhibition) | –
O=C(CCCN1CCN(c2ccc(Cl)cc2)CC1)c1ccc(F)cc1 [Compound 3] | – | – | – | – | Ki [8]: 3.55 ± 0.943 µM; Ki [9]: 90.9 ± 21 nM; Ki [10]: 17.5 ± 2 nM
